Measured values reported in US7101906B2, “2,3,4-substituted cyclopentanones as therapeutic agents” (Allergan, Inc., priority 2004, dated 2006).

Columns and labels:
hEP4/Gqs5 = target: T1, hEP4/Gqs5 (Homo sapiens, UniProt P35408); assay: FLIPR calcium signal, hEP4/Gqs5; assay type: cell-based; conditions: HEK-293(EBNA) cells, read-out: Functional EC50 (nM) HEP4
T1 construct: expressed in transfected cells
Procedure: (§1) HEK-293(EBNA) cells, stably expressing one type or subtype of recombinant human prostaglandin receptors (prostaglandin receptors expressed: hDP/Gqs5; hEP1; hEP2/Gqs5; hEP3A/Gqi5; hEP4/Gqs5; hFP; hIP; hTP), were cultured in 100 mm culture dishes in high-glucose DMEM medium containing 10% fetal bovine serum, 2 mM 1-glutamine, 250 μg/ml geneticin (G418) and 200 μg/ml hygromycin B as selection markers, and 100 units/ml penicillin G, 100 μg/ml streptomycin and 0.25 μg/ml amphotericin B.
(§2) Cells were seeded at a density of 5×10^4 cells per well in Biocoat® Poly-D-lysine-coated black-wall, clear-bottom 96-well plates (Becton-Dickinson) and allowed to attach overnight in an incubator at 37° C. Cells were then washed two times with HBSS-HEPES buffer (Hanks Balanced Salt Solution without bicarbonate and phenol red, 20 mM HEPES, pH 7.4) using a Denley Cellwash plate washer (Labsystems). After 45 minutes of dye-loading in the dark, using the calcium-sensitive dye Fluo-4 AM at a final concentration of 2 μM, plates were washed four times with HBSS-HEPES buffer to remove excess dye leaving 100 μl in each well. Plates were re-equilibrated to 37° C. for a few minutes.
(§3) Cells were excited with an Argon laser at 488 nm, and emission was measured through a 510–570 nm bandwidth emission filter (FLIPR™, Molecular Devices, Sunnyvale, Calif.). Drug solution was added in a 50 μl volume to each well to give the desired final concentration. The peak increase in fluorescence intensity was recorded for each well. On each plate, four wells each served as negative (HBSS-HEPES buffer) and positive controls (standard agonists: BW245C (hDP); PGE2 (hEP1; hEP2/Gqs5; hEP3A/Gqi5; hEP4/Gqs5); PGF2α (hFP); carbacyclin (hIP); U-46619 (hTP), depending on receptor). The peak fluorescence change in each drug-containing well was then expressed relative to the controls.
(§4) Compounds were tested in a high-throughput (HTS) or concentration-response (CoRe) format. In the HTS format, forty-four compounds per plate were examined in duplicates at a concentration of 10^−5 M. To generate concentration-response curves, four compounds per plate were tested in duplicates in a concentration range between 10^−5 and 10^−11 M. The duplicate values were averaged. In either, HTS or CoRe format each compound was tested on at least 3 separate plates using cells from different passages to give an n≧3.

hEP3A/Gqi5 = target: T2, hEP3A/Gqi5 (Homo sapiens, UniProt P43115); assay: FLIPR calcium signal, hEP3A/Gqi5; assay type: cell-based; conditions: HEK-293(EBNA) cells, read-out: Functional EC50 (nM) HEP3A
T2 construct: expressed in transfected cells
T2 sequence (P43115 1-390): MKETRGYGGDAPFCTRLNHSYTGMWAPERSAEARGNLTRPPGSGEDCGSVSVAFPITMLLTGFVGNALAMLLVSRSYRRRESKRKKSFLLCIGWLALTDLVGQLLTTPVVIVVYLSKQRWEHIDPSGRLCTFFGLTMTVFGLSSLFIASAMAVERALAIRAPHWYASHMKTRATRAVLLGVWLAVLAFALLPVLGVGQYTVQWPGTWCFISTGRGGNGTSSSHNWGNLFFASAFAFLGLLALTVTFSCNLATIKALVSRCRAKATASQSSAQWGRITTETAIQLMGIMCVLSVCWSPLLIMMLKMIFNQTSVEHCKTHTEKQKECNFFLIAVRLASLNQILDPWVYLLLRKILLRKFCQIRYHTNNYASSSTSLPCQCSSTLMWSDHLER
Procedure: as §1, §2, §3, §4

HEP4 = target: T3, HEP4 (Homo sapiens, UniProt P35408); assay: Radioligand binding, EP4 receptor; conditions: competition vs [3H]PGE2 5 nM, HEK-293 cell membranes
T3 construct: expressed in transfected cells; membrane fraction
Procedure: (§5) HEK-293 cells stably expressing the human or feline FP receptor, or EP1, EP2, or EP4 receptors were washed with TME buffer, scraped from the bottom of the flasks, and homogenized for 30 sec using a Brinkman PT 10/35 polytron. TME buffer was added to achieve a final 40 ml volume in the centrifuge tubes (the composition of TME is 100 mM TRIS base, 20 mM MgCl2, […]; 10N HCl is added to achieve a pH of 7.4).
(§6) The cell homogenate was centrifuged at 19000 r.p.m. for 20 min at 4° C. using a Beckman Ti-60 rotor. The resultant pellet was resuspended in TME buffer to give a final 1 mg/ml protein concentration, as determined by Biorad assay. Radioligand binding competition assays vs. [^3H-]17-phenyl PGF2α (5 nM) were performed in a 100 μl volume for 60 min. Binding reactions were started by adding plasma membrane fraction. The reaction was terminated by the addition of 4 ml ice-cold TRIS-HCl buffer and rapid filtration through glass fiber GF/B filters using a Brandel cell harvester. The filters were washed 3 times with ice-cold buffer and oven dried for one hour. Non-specific binding was determined with 10 uM unlabeled 17-phenyl PGF2α.
[^3H-] PGE2 (5 nM; specific activity 180 Ci mmol) was used as the radioligand for EP receptors. Binding studies employing EP1, EP2, EP3, EP4 were performed in duplicate in at least three separate experiments. A 200 μl assay volume was used. Incubations were for 60 min at 25° C. and were terminated by the addition of 4 ml of ice-cold 50 mM TRIS-HCl, followed by rapid filtration through Whatman GF/B filters and three additional 4 ml washes in a cell harvester (Brandel). Non-specific binding determined with 10^−5M of unlabeled PGE2.

hEP1 = target: T4, hEP1 (Homo sapiens, UniProt P34995); assay: FLIPR calcium signal, hEP1; assay type: cell-based; conditions: HEK-293(EBNA) cells, read-out: Functional EC50 (nM) HEP1
T4 construct: expressed in transfected cells
T4 sequence (P34995 1-402): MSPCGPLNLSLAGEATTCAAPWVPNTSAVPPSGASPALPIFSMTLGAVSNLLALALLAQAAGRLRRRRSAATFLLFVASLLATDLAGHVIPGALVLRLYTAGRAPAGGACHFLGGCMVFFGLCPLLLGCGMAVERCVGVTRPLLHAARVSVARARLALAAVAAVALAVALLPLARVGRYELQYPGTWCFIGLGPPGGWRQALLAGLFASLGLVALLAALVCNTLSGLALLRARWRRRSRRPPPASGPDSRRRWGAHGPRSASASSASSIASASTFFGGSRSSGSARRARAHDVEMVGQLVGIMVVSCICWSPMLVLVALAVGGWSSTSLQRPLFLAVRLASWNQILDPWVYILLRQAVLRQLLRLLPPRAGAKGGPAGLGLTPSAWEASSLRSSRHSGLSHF
Procedure: as §1, §2, §3, §4

HEP2 = target: T5, HEP2 (Homo sapiens, UniProt P43116); assay: Radioligand binding, EP2 receptor; conditions: competition vs [3H]PGE2 5 nM, HEK-293 cell membranes
T5 construct: expressed in transfected cells; membrane fraction
Procedure: as §5, §6
(§7) [^3H-] PGE2 (5 nM; specific activity 180 Ci mmol) was used as the radioligand for EP receptors. […] Non-specific binding determined with 10^−5M of unlabeled PGE2.

hEP2/Gqs5 = target: T6, hEP2/Gqs5 (Homo sapiens, UniProt P43116); assay: FLIPR calcium signal, hEP2/Gqs5; assay type: cell-based; conditions: HEK-293(EBNA) cells, read-out: Functional EC50 (nM) HEP2
T6 construct: expressed in transfected cells
Procedure: as §1, §2, §3
Compounds were tested in a high-throughput (HTS) or concentration-response (CoRe) format. […]

hTP = target: T7, hTP (Homo sapiens, UniProt P21731); assay: FLIPR calcium signal, hTP; assay type: cell-based; conditions: HEK-293(EBNA) cells, read-out: Functional EC50 (nM) HTP
T7 construct: expressed in transfected cells
T7 sequence (P21731 1-343): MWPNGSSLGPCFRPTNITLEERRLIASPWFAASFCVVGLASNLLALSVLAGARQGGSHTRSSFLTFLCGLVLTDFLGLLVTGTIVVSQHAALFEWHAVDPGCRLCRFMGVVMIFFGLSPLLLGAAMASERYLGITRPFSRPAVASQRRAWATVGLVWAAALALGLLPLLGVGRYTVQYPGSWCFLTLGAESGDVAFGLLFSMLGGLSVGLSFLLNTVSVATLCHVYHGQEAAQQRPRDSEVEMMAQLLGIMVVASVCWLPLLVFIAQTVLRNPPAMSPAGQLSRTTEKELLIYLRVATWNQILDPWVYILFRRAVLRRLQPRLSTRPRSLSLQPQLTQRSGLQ
Procedure: as §1, §2, §3, §4

HEP3D = target: T8, HEP3D (Homo sapiens, UniProt P43115); assay: Radioligand binding, EP3 receptor; conditions: competition vs [3H]PGE2 5 nM
T8 sequence (P43115 1-374 isoform P43115-4): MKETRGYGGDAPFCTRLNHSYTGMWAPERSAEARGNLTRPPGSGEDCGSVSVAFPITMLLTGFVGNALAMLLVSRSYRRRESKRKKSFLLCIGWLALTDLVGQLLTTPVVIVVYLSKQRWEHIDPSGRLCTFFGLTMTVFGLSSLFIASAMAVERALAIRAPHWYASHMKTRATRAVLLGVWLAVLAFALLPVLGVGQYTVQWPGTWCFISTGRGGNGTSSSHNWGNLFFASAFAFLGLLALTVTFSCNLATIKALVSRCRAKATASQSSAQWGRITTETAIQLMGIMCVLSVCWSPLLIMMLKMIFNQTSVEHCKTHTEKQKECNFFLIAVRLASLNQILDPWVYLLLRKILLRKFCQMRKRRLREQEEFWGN
Procedure: as §5, §6, §7

T3 sequence (P35408 whole entry): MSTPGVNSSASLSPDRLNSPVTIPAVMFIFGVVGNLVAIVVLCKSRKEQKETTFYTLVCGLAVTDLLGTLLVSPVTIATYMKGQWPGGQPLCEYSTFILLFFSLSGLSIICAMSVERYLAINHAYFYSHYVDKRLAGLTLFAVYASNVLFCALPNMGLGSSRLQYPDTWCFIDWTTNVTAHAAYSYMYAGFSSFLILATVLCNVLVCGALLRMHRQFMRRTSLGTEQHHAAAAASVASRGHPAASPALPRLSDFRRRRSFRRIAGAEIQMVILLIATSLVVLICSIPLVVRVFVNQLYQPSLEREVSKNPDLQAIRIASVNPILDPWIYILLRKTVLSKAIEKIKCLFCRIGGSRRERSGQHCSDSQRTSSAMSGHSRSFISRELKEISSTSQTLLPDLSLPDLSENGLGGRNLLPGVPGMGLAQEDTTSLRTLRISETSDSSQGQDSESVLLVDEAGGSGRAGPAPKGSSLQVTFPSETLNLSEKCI
T1 sequence (P35408 whole entry): as above
T6 sequence (P43116 whole entry): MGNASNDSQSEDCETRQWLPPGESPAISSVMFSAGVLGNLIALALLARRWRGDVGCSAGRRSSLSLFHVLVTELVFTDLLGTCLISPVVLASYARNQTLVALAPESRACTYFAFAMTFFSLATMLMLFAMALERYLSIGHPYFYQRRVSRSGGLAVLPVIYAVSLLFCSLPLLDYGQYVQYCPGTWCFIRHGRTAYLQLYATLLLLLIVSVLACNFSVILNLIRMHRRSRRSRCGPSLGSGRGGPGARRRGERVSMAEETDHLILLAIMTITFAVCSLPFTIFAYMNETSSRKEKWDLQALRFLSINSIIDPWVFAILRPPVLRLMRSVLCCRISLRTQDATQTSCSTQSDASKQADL
T5 sequence (P43116 whole entry): as above

Row | SMILES | EC50 (hEP4/Gqs5) [nM] | IC50 (HEP4) [nM] | other results
1 | C[C@@H]1CC(=O)[C@H](C/C=C\CCCC(=O)O)[C@H]1/C=C/C(O)CCc1sc2ccccc2c1Cl (some centres unmarked) | 153 | 1800 | EC50 (hEP3A/Gqi5): > 10000 nM; EC50 (hEP1): > 10000 nM
2 | COC(=O)CCC/C=C\C[C@H]1C(=O)C[C@@H](C)[C@@H]1/C=C/C(O)CCc1sc2ccccc2c1Cl (some centres unmarked) | > 10000 | > 10000 | –
3 | COC(=O)CCC/C=C\C[C@H]1C(=O)C[C@@H](C(C)C)[C@@H]1/C=C/C(O)CCc1sc2ccccc2c1Cl (some centres unmarked) | – | > 10000 | –
4 | CC(C)[C@@H]1CC(=O)[C@H](C/C=C\CCCC(=O)O)[C@H]1/C=C/C(O)CCc1sc2ccccc2c1Cl (some centres unmarked) | > 10000 | > 10000 | –
5 | CC[C@@H]1CC(=O)[C@H](C/C=C\CCCC(=O)O)[C@H]1/C=C/C(O)CCc1sc2ccccc2c1Cl (some centres unmarked) | 708 | 2100 | –
6 | C=C[C@@H]1CC(=O)[C@H](C/C=C\CCCC(=O)O)[C@H]1/C=C/C(O)CCc1sc2ccccc2c1Cl (some centres unmarked) | 156 | 650 | IC50 (HEP2): > 10000 nM
7 | C=C[C@@H]1CC(=O)[C@H](C/C=C\CCCC(=O)OC)[C@H]1/C=C/C(O)CCc1sc2ccccc2c1Cl (some centres unmarked) | 1700 | > 10000 | –
8 | CC[C@@H]1CC(=O)[C@H](C/C=C\CCCC(=O)OC)[C@H]1/C=C/C(O)CCc1sc2ccccc2c1Cl (some centres unmarked) | – | > 10000 | –
9 | O=C(O)CCC/C=C\C[C@H]1C(=O)C[C@@H](CO)[C@@H]1/C=C/C(O)Cc1cc2ccccc2s1 (single isomer, unassigned) [drawing 36] | > 10000 | – | EC50 (hEP2/Gqs5): > 10000 nM; EC50 (hEP3A/Gqi5): > 10000 nM; EC50 (hTP): > 10000 nM; EC50 (hEP1): > 10000 nM
10 | O=C(O)CCC/C=C\C[C@H]1C(=O)C[C@@H](CO)[C@@H]1/C=C/C(O)Cc1cc2ccccc2s1 (single isomer, unassigned) [drawing 37] | 1770 | – | EC50 (hEP2/Gqs5): > 10000 nM; EC50 (hEP3A/Gqi5): 99 nM; EC50 (hEP1): 9 nM
11 | COC(=O)CCC/C=C\C[C@H]1C(=O)C[C@@H](CO)[C@@H]1/C=C/C(O)CCc1sc2ccccc2c1Cl (some centres unmarked) [drawing 30] | > 10000 | – | –
12 | COC(=O)CCC/C=C\C[C@H]1C(=O)C[C@@H](CO)[C@@H]1/C=C/C(O)CCc1sc2ccccc2c1Cl (some centres unmarked) [drawing 31] | > 10000 | – | –
13 | O=C(O)CCC/C=C\C[C@H]1C(=O)C[C@@H](CO)[C@@H]1/C=C/C(O)CCc1sc2ccccc2c1Cl (some centres unmarked) [drawing 32] | 1240 | – | –
14 | O=C(O)CCC/C=C\C[C@H]1C(=O)C[C@@H](CO)[C@@H]1/C=C/C(O)CCc1sc2ccccc2c1Cl (some centres unmarked) [drawing 33] | 1790 | – | –
15 | COC(=O)CCC/C=C\C[C@H]1C(=O)C[C@@H](CO)[C@@H]1/C=C/C(O)Cc1cc2ccccc2s1 (some centres unmarked) [drawing 34] | > 10000 | – | EC50 (hTP): > 10000 nM; EC50 (hEP1): > 10000 nM
16 | COC(=O)CCC/C=C\C[C@H]1C(=O)C[C@@H](CO)[C@@H]1/C=C/C(O)Cc1cc2ccccc2s1 (some centres unmarked) [drawing 35] | > 10000 | – | EC50 (hEP2/Gqs5): > 10000 nM; EC50 (hEP3A/Gqi5): 9000 nM; EC50 (hTP): > 10000 nM; EC50 (hEP1): > 10000 nM
17 | COC(=O)CCC/C=C\C[C@H]1C(=O)CC[C@@H]1/C=C/C(O)CCc1sc2ccccc2c1Cl (some centres unmarked) [drawing 38] | 515 | – | –
18 | COC(=O)CCC/C=C\C[C@H]1C(=O)CC[C@@H]1/C=C/C(O)CCc1sc2ccccc2c1Cl (some centres unmarked) [drawing 39] | 862 | – | EC50 (hTP): > 10000 nM
19 | O=C(O)CCC/C=C\C[C@H]1C(=O)CC[C@@H]1/C=C/C(O)CCc1sc2ccccc2c1Cl (some centres unmarked) [drawing 40] | 11 | 150 | IC50 (HEP2): > 10000 nM; IC50 (HEP3D): 6000 nM
20 | O=C(O)CCC/C=C\C[C@H]1C(=O)CC[C@@H]1/C=C/C(O)CCc1sc2ccccc2c1Cl (some centres unmarked) [drawing 41] | 25 | 110 | IC50 (HEP3D): 3700 nM; EC50 (hEP3A/Gqi5): > 10000 nM; EC50 (hTP): > 10000 nM
